Reference: PubChem BioAssay AID651650 (Sanford-Burnham Center for Chemical Genomics, 2012)
Active and inactive are the calls of the source.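 The calls were made as follows: active = mean IC50 below 20 µM in each of the two panels, so potent in both; inactive = the rest.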

target: Neuropilin-1 (Homo sapiens) (UniProt O14786); assay: blockers of CendR peptide binding to NRP-1 – biochemical, FP and AlphaScreen panel, dose response (AID 651650); conditions: NRP-1 b1b2 / RPARPAR peptide binding, FP or AlphaScreen; FP, mean of runs
Sequence (O14786 whole entry, looked up): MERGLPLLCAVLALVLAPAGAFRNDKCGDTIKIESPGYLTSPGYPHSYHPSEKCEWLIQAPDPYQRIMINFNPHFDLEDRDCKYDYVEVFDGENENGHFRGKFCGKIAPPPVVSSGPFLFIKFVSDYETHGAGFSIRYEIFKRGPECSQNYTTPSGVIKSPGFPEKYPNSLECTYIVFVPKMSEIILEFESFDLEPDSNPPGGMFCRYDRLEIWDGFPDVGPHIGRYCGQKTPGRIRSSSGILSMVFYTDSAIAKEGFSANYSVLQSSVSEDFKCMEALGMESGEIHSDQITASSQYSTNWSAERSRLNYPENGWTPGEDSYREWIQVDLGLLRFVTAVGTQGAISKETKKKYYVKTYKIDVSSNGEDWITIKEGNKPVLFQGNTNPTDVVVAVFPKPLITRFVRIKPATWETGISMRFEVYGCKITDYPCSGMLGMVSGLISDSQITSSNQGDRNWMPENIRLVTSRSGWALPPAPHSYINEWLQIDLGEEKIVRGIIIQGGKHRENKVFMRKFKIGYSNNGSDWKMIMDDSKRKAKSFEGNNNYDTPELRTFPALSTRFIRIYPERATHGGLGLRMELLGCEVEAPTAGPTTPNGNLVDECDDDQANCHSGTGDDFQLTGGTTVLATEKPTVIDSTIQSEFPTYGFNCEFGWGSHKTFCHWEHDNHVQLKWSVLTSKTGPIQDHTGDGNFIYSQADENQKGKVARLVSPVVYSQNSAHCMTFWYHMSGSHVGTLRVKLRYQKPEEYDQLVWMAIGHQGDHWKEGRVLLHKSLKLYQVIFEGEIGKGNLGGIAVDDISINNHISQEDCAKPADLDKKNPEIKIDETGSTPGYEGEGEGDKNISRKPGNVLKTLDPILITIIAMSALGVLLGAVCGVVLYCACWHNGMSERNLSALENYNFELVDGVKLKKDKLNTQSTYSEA

Structure (SMILES)	IC50
Cc1nc(Nc2ccc(S(N)(=O)=O)cc2)oc1C	> 95 µM (inactive)
Cc1ccc(NNS(=O)(=O)c2ccc(C)cc2)cc1	> 95 µM (inactive)
Cc1cc(C)n(-c2nnc3n2N=C(c2c[nH]c4ccccc24)CS3)n1	> 95 µM (inactive)
CCOc1c2ccc(C(=O)NCCc3cccs3)cc2nn1CC	> 95 µM (inactive)
CCOC(=O)C1=CCN(S(=O)(=O)c2ccccc2Br)C1c1ccccc1 (stereo not drawn)	> 95 µM (inactive)
C=CCN1C(=O)C2(C(C(=O)OCC)=C(N)Oc3ccccc32)c2c1c1ccccc1oc2=O (stereo not drawn)	> 95 µM (inactive)
COc1ccc(NC(=O)CN(C)CC(=O)Nc2cccc(F)c2)cc1Cl	> 95 µM (inactive)
O=[N+]([O-])c1cc(-c2csc(NCCc3nc4cc(C(F)(F)F)ccc4n3CCCO)n2)ccc1Cl	> 95 µM (inactive)
O=C(Nc1ccc(N2CCOCC2)cc1)c1cc(-n2cnnc2)ccc1Cl	> 95 µM (inactive)
CSCCC(NC(=O)c1ccc(Cl)cc1Cl)C(=O)NCC(c1cccs1)N(C)C (stereo not drawn)	> 95 µM (inactive)
Cc1cc(C)n2c(Nc3ccc4c(c3)OCCO4)c(-c3ccccn3)nc2n1	> 95 µM (inactive)
CCC1C2Cc3ccc(O)cc3C1(CC)CCN2C (stereo not drawn)	> 95 µM (inactive)
COC(=O)c1cccc(NC(=S)NCCC2=CCCCC2)c1	> 95 µM (inactive)
COc1ccc(-c2csc(Nc3cccnc3)n2)cc1	> 95 µM (inactive)
C=CCn1c(SCC(=O)Nc2ncc(Cc3ccc(Br)cc3)s2)nnc1-c1ccncc1	> 95 µM (inactive)
CCOc1ccc(/C=C2/Sc3ccc(C(=O)NCC4CCCO4)cc3N(C)C2=O)cc1OC (stereo not drawn)	> 95 µM (inactive)
Cc1ccc(C(=O)Nc2nnc([C@H]3C[C@H](O)[C@@H](CO)O3)s2)cc1	> 95 µM (inactive)
O=C(Cn1cccc1C(=O)c1ccccc1)NCCC1=CCCCC1	> 95 µM (inactive)
O=C(Cc1ccc(F)cc1)N1CCN=C1SCc1ccc([N+](=O)[O-])cc1	> 95 µM (inactive)
COc1ccc(CCNC(=O)c2ccc(Cl)c(S(=O)(=O)N(C)c3ccccc3)c2)cc1	> 95 µM (inactive)
NC(=O)C1CCCN(C(=O)c2ccc3nc(Cc4cccc(Cl)c4)oc3c2)C1 (stereo not drawn)	> 95 µM (inactive)
CC(=O)Nc1ccc(Oc2cc(C#N)c(C#N)cc2N2CCOCC2)cc1	> 95 µM (inactive)
CCOCCCNC(=O)C(c1ccc(C)cc1)N(Cc1cccs1)C(=O)c1ccccc1O (stereo not drawn)	> 95 µM (inactive)

same assay, conditions: NRP-1 b1b2 / RPARPAR peptide binding, FP or AlphaScreen; FP, run 1; individual panel run IC50

Structure (SMILES)	IC50 [µM]
COCc1cccc(-c2csc(C(C)(O)c3ccccc3)n2)c1 (stereo not drawn)	> 95
CC(=O)NCCNc1nc(NC(C)C)nc2ccsc12	> 95
CN(C)Cc1cc(C(F)(F)F)ccc1C(O)(c1ccccc1)c1ccccc1	> 95
C=CCNC(=O)c1onc(CSc2ccc(F)c(F)c2)c1C(=O)NCC=C	> 95
N/C(CSc1ccc(Cl)cc1)=N\S(=O)(=O)c1ccc(Cl)cc1	> 95
O=C(O)c1ccc(C(=O)Nc2cccc3ccccc23)c(C(=O)O)c1	> 95
CC(NCCOCCOc1ccccc1)c1ccccc1 (stereo not drawn)	> 95
Cn1c(=NC(=O)COc2ccccc2)sc2ccccc21	> 95
O=C(NCc1ccccc1)C(c1cccnc1)N(C(=O)c1ccccn1)c1ccccc1F (stereo not drawn)	> 95
O=C(O)c1ccccc1SCC(=O)N1CCCCC1	> 95
Cc1cccc(CN2CCN(C3CN(Cc4cn(Cc5cccc(Cl)c5)nn4)S(=O)(=O)C3)CC2)c1 (stereo not drawn)	> 95
Cc1ccc(-n2c(-c3ccco3)nc3c(cnn3-c3ccc(C)cc3)c2=O)cc1	39.7
NCCCC[C@H]1CN=C(N)N1CCC12CC3CC(CC(C3)C1)C2	> 95
CCCCn1nnnc1C(c1cc2ccccc2o1)N(C)Cc1ccc(Cl)c(Cl)c1 (stereo not drawn)	> 95
CC1(C(=O)NCc2cccc3ccccc23)CCN1Cc1cccc2c1OCO2 (stereo not drawn)	> 95
Cc1ccccc1Nc1cc(=O)oc2ccccc12	> 95
CC(C)(C)OC(=O)N1CCN(C(=O)c2[nH]cnc2C(=O)NCc2ccccc2)CC1	> 95
NC(=O)C1CCN(c2nc(-c3ccc4occc(=O)c4c3)cs2)CC1	> 95
Cc1ccc(Cn2c(C(C)Nc3nc(-c4ccc(Cl)c([N+](=O)[O-])c4)cs3)nc3cc(C(F)(F)F)ccc32)cc1 (stereo not drawn)	> 95
N#Cc1ccc(COC(=O)c2cnc(Cl)c(Cl)c2)cc1	> 95
COc1ccc(/C=N/NC(=O)c2cc(C(C)(C)C)[nH]n2)cc1COc1ccc(F)cc1F	> 95
O=C(OCn1nnc2ccccc2c1=O)c1ccc(Br)o1	> 95
Cc1nc(Nc2ccc(S(N)(=O)=O)cc2)oc1C	> 95

Structure (SMILES)	IC50 [µM]
Cc1ccc(NNS(=O)(=O)c2ccc(C)cc2)cc1	> 95
Cc1cc(C)n(-c2nnc3n2N=C(c2c[nH]c4ccccc24)CS3)n1	> 95
CCOc1c2ccc(C(=O)NCCc3cccs3)cc2nn1CC	> 95
CCOC(=O)C1=CCN(S(=O)(=O)c2ccccc2Br)C1c1ccccc1 (stereo not drawn)	> 95
C=CCN1C(=O)C2(C(C(=O)OCC)=C(N)Oc3ccccc32)c2c1c1ccccc1oc2=O (stereo not drawn)	> 95
COc1ccc(NC(=O)CN(C)CC(=O)Nc2cccc(F)c2)cc1Cl	> 95
O=[N+]([O-])c1cc(-c2csc(NCCc3nc4cc(C(F)(F)F)ccc4n3CCCO)n2)ccc1Cl	> 95
O=C(Nc1ccc(N2CCOCC2)cc1)c1cc(-n2cnnc2)ccc1Cl	> 95
CSCCC(NC(=O)c1ccc(Cl)cc1Cl)C(=O)NCC(c1cccs1)N(C)C (stereo not drawn)	> 95
Cc1cc(C)n2c(Nc3ccc4c(c3)OCCO4)c(-c3ccccn3)nc2n1	> 95
CCC1C2Cc3ccc(O)cc3C1(CC)CCN2C (stereo not drawn)	> 95
COC(=O)c1cccc(NC(=S)NCCC2=CCCCC2)c1	> 95
COc1ccc(-c2csc(Nc3cccnc3)n2)cc1	> 95
C=CCn1c(SCC(=O)Nc2ncc(Cc3ccc(Br)cc3)s2)nnc1-c1ccncc1	> 95
CCOc1ccc(/C=C2/Sc3ccc(C(=O)NCC4CCCO4)cc3N(C)C2=O)cc1OC (stereo not drawn)	> 95
Cc1ccc(C(=O)Nc2nnc([C@H]3C[C@H](O)[C@@H](CO)O3)s2)cc1	> 95
O=C(Cn1cccc1C(=O)c1ccccc1)NCCC1=CCCCC1	> 95
O=C(Cc1ccc(F)cc1)N1CCN=C1SCc1ccc([N+](=O)[O-])cc1	> 95
COc1ccc(CCNC(=O)c2ccc(Cl)c(S(=O)(=O)N(C)c3ccccc3)c2)cc1	> 95
NC(=O)C1CCCN(C(=O)c2ccc3nc(Cc4cccc(Cl)c4)oc3c2)C1 (stereo not drawn)	> 95
CC(=O)Nc1ccc(Oc2cc(C#N)c(C#N)cc2N2CCOCC2)cc1	> 95
CCOCCCNC(=O)C(c1ccc(C)cc1)N(Cc1cccs1)C(=O)c1ccccc1O (stereo not drawn)	> 95

same assay, conditions: NRP-1 b1b2 / RPARPAR peptide binding, FP or AlphaScreen; FP, run 2; individual panel run IC50

Structure (SMILES)	IC50 [µM]
COCc1cccc(-c2csc(C(C)(O)c3ccccc3)n2)c1 (stereo not drawn)	> 95
CC(=O)NCCNc1nc(NC(C)C)nc2ccsc12	> 95
CN(C)Cc1cc(C(F)(F)F)ccc1C(O)(c1ccccc1)c1ccccc1	> 95
C=CCNC(=O)c1onc(CSc2ccc(F)c(F)c2)c1C(=O)NCC=C	> 95
N/C(CSc1ccc(Cl)cc1)=N\S(=O)(=O)c1ccc(Cl)cc1	> 95
O=C(O)c1ccc(C(=O)Nc2cccc3ccccc23)c(C(=O)O)c1	> 95
CC(NCCOCCOc1ccccc1)c1ccccc1 (stereo not drawn)	> 95
Cn1c(=NC(=O)COc2ccccc2)sc2ccccc21	> 95
O=C(NCc1ccccc1)C(c1cccnc1)N(C(=O)c1ccccn1)c1ccccc1F (stereo not drawn)	> 95
O=C(O)c1ccccc1SCC(=O)N1CCCCC1	> 95
Cc1cccc(CN2CCN(C3CN(Cc4cn(Cc5cccc(Cl)c5)nn4)S(=O)(=O)C3)CC2)c1 (stereo not drawn)	> 95
Cc1ccc(-n2c(-c3ccco3)nc3c(cnn3-c3ccc(C)cc3)c2=O)cc1	36.3
NCCCC[C@H]1CN=C(N)N1CCC12CC3CC(CC(C3)C1)C2	> 95
CCCCn1nnnc1C(c1cc2ccccc2o1)N(C)Cc1ccc(Cl)c(Cl)c1 (stereo not drawn)	> 95
CC1(C(=O)NCc2cccc3ccccc23)CCN1Cc1cccc2c1OCO2 (stereo not drawn)	> 95
Cc1ccccc1Nc1cc(=O)oc2ccccc12	> 95
CC(C)(C)OC(=O)N1CCN(C(=O)c2[nH]cnc2C(=O)NCc2ccccc2)CC1	> 95
NC(=O)C1CCN(c2nc(-c3ccc4occc(=O)c4c3)cs2)CC1	> 95
Cc1ccc(Cn2c(C(C)Nc3nc(-c4ccc(Cl)c([N+](=O)[O-])c4)cs3)nc3cc(C(F)(F)F)ccc32)cc1 (stereo not drawn)	> 95
N#Cc1ccc(COC(=O)c2cnc(Cl)c(Cl)c2)cc1	> 95
COc1ccc(/C=N/NC(=O)c2cc(C(C)(C)C)[nH]n2)cc1COc1ccc(F)cc1F	> 95
O=C(OCn1nnc2ccccc2c1=O)c1ccc(Br)o1	> 95
Cc1nc(Nc2ccc(S(N)(=O)=O)cc2)oc1C	> 95

Structure (SMILES)	IC50 [µM]
Cc1ccc(NNS(=O)(=O)c2ccc(C)cc2)cc1	> 95
Cc1cc(C)n(-c2nnc3n2N=C(c2c[nH]c4ccccc24)CS3)n1	> 95
CCOc1c2ccc(C(=O)NCCc3cccs3)cc2nn1CC	> 95
CCOC(=O)C1=CCN(S(=O)(=O)c2ccccc2Br)C1c1ccccc1 (stereo not drawn)	> 95
C=CCN1C(=O)C2(C(C(=O)OCC)=C(N)Oc3ccccc32)c2c1c1ccccc1oc2=O (stereo not drawn)	> 95
COc1ccc(NC(=O)CN(C)CC(=O)Nc2cccc(F)c2)cc1Cl	> 95
O=[N+]([O-])c1cc(-c2csc(NCCc3nc4cc(C(F)(F)F)ccc4n3CCCO)n2)ccc1Cl	> 95
O=C(Nc1ccc(N2CCOCC2)cc1)c1cc(-n2cnnc2)ccc1Cl	> 95
CSCCC(NC(=O)c1ccc(Cl)cc1Cl)C(=O)NCC(c1cccs1)N(C)C (stereo not drawn)	> 95
Cc1cc(C)n2c(Nc3ccc4c(c3)OCCO4)c(-c3ccccn3)nc2n1	> 95
CCC1C2Cc3ccc(O)cc3C1(CC)CCN2C (stereo not drawn)	> 95
COC(=O)c1cccc(NC(=S)NCCC2=CCCCC2)c1	> 95
COc1ccc(-c2csc(Nc3cccnc3)n2)cc1	> 95
C=CCn1c(SCC(=O)Nc2ncc(Cc3ccc(Br)cc3)s2)nnc1-c1ccncc1	> 95
CCOc1ccc(/C=C2/Sc3ccc(C(=O)NCC4CCCO4)cc3N(C)C2=O)cc1OC (stereo not drawn)	> 95
Cc1ccc(C(=O)Nc2nnc([C@H]3C[C@H](O)[C@@H](CO)O3)s2)cc1	> 95
O=C(Cn1cccc1C(=O)c1ccccc1)NCCC1=CCCCC1	> 95
O=C(Cc1ccc(F)cc1)N1CCN=C1SCc1ccc([N+](=O)[O-])cc1	> 95
COc1ccc(CCNC(=O)c2ccc(Cl)c(S(=O)(=O)N(C)c3ccccc3)c2)cc1	> 95
NC(=O)C1CCCN(C(=O)c2ccc3nc(Cc4cccc(Cl)c4)oc3c2)C1 (stereo not drawn)	> 95
CC(=O)Nc1ccc(Oc2cc(C#N)c(C#N)cc2N2CCOCC2)cc1	> 95
CCOCCCNC(=O)C(c1ccc(C)cc1)N(Cc1cccs1)C(=O)c1ccccc1O (stereo not drawn)	> 95
